Columns and labels:
DLD1-TxR = test: SRB cell growth inhibition assay; assay type: cell-based, human; conditions: for selectivity ratio colorectal cancer: GI50 sensitive DLD1 / GI50 MDR DLD1-TxR; for GI50: Homo sapiens, 48 h, colorectal cancer MDR, mean ± SEM; for GI50 / GI50 concentration range against MDR DLD1-TxR: SRB assay; for GI50 concentration range against MDR DLD1-TxR: in words
Procedure: (§1) Two distinct pairs of counterpart drug-sensitive and MDR human tumor cell lines were used, namely the non-small lung cancer (NSCLC) NCI-H460 (same cell line as in the NCI screen) and its MDR counterpart cell line NCI-H460/R and the colorectal cancer DLD1 and its MDR counterpart cell line DLD1-TxR (Table 3). The screening was performed using the SRB assay, and the GI50 for each compound was determined by interpolation on the attained concentration−response curves and compared with NCI60 screening data (SI, Figures S62−S63; Table S21).
(§2) Two pairs of drug-sensitive and multidrug-resistant (MDR) cell lines from human nonsmall cell lung cancer (NSCLC), NCI-H460 and NCI-H460/R, and colorectal cancer, DLD1 and DLD1-TxR, kindly provided by Dr M. Pešić (Belgrade, Serbia), were used to evaluate the growth inhibition potential of the compounds 1, 2, 3, 4, 5, 20, 23, 24, an 25.[76],[77] Additionally, growth inhibition assays were performed with compound 25 on two other NSCLC cell lines, A549 and NCI-H322, obtained from the American Type Culture Collection (ATCC) and the European Collection of Authenticated Cell Cultures, respectively. The A549 cell line was maintained in Dulbecco’s Modified Eagle Medium (DMEM) supplemented with 4.5 g/L Glucose with UltraGlutamine with sodium pyruvate (Lonza, Basel Stücki, Switzerland), enriched with 10% fetal bovine serum (FBS; Biowest, Nuaillé, France). The lung fibroblast MRC-5 cell line and the remaining NSCLC and colorectal cancer cell lines were cultured in Roswell Park Memorial Institute (RPMI) 1640 (with stable glutamine and 25 mM HEPES) medium (Biowest), supplemented with 10% fetal bovine serum. […] For the sulforhodamine B (SRB) and 3D cell culture assays, the media were supplemented with 5% FBS. The remaining experiments were performed with medium supplemented with 10% FBS.
(§3) Cells were seeded at a previously determined optimal cell concentration (5.0 × 10^4 cells/mL for NSCLC cells and the nontumorigenic MRC-5 cell line and 1.0 × 10^5 cells/mL for colorectal cancer cells) and incubated at 37 °C for 24 h. […] The SRB assay was performed as previously described.[78],[79] Briefly, after fixing cells with 10% (w/v) ice-cold trichloroacetic acid (Merck Life Science), the proteins were stained with 0.4% of SRB (Merck Life Science) in acetic acid (Merck Life Science). Following washing steps in acetic acid, the bound dye was solubilized with 10 mM Tris base solution (Merck Life Science). Absorbance was measured at 510 nm in a multiplate reader (Synergy Mx, Biotek Instruments Inc., Winooski, Vermont, USA) using the Gen5 software (Biotek Instruments Inc.).

DLD1 = test: SRB cell growth inhibition assay; assay type: cell-based; conditions: Homo sapiens, DLD-1, 48 h, colorectal cancer sensitive, mean ± SEM
From the text: as §1, with “Taking into consideration the promising results of preliminary NCI screening, nine compounds (1, 2, 3, 4, 5, 20, 23, 24, 25) were selected for further screening in two counterpart pairs of sensitive and MDR cell lines. […] Two” for “Two”
as §2, §3

NCI-H460 = test: SRB cell growth inhibition assay; assay type: cell-based; conditions: Homo sapiens, 48 h, NSCLC sensitive, mean ± SEM
From the text: as §1, with “Taking into consideration the promising results of preliminary NCI screening, nine compounds (1, 2, 3, 4, 5, 20, 23, 24, 25) were selected for further screening in two counterpart pairs of sensitive and MDR cell lines. […] Two” for “Two”
as §2, §3

OVCAR-8 = test: NCI60 five-dose GI50; assay type: cell-based; conditions: Homo sapiens, ovarian
From the text: The concentration−response curve generated enables the determination of three criteria, GI50 (drug concentration at which 50% of cell growth is inhibited), total growth inhibition (TGI) and LC50 (drug concentration at which 50% of tumor cells are killed) which can be used to compare effectiveness against any compound tested in the screen since its inception.
(§4) S2.1 NCI Screening Assay Experimental details
(§5) NCI Screening Assay Experimental: Cancer cell growth assays (NCI60 screening) 5,6 One-dose study: Tested compounds were initially solubilised in DMSO, diluted into RPMI 1640 and 5% fetal bovine serum/L-glutamine, and added to 96-well plates containing cell lines previously cultured for 24 h. After 48 h incubation, the media were removed, and the cells were fixed and stained with sulforhodamine B to determine overall percent growth/ total protein content. Unbound dye was removed with five washes of 1% acetic acid, and the plates were allowed to air dry. The dye was then resolubilised in Tris buffer, and the colorimetric absorbance was measured (515 nm). […]
Five-dose study: Serial 5 × 10-fold dilution from an initial DMSO stock solution was performed, prior to incubation at each individual concentration (10 nM, 100 nM, 1 μM, 10 μM and 100 μM). Using seven absorbance measurements (time zero (Tz), control growth (C), and test growth in the presence of drug at the five concentration levels (Ti)), the percentage growth was calculated at each of the drug concentrations levels. Percentage growth inhibition was calculated as: [(Ti − Tz)/(C − Tz)] × 100 for concentrations for which Ti ≥ Tz, [(Ti − Tz)/Tz] × 100 for concentrations for which Ti < Tz. Three dose response parameters were calculated for each experimental agent. […]
was calculated from [(Ti − Tz)/(C − Tz)] × 100 = 50, which is the drug concentration resulting in a 50% reduction in the net protein increase (as measured by sulforhodamine B staining) in control cells during the drug incubation. The drug concentration resulting in total growth inhibition (TGI) was calculated from Ti = Tz. The LC50 (concentration of drug resulting in a 50% reduction in the measured protein at the end of the drug treatment as compared to that at the beginning) indicating a net loss of cells following treatment was calculated from [(Ti − Tz)/Tz] × 100 = −50. Values were calculated for each of these three parameters if the level of activity was reached; however, if the effect was not reached or was exceeded, the value for that parameter was expressed as greater or less than the maximum or minimum concentration tested.

[1] = tested on: NCI60 tumor cell line panel; test: NCI60 one-dose screen (10 μM), mean growth; assay type: cell-based, human; conditions: 48 h, one dose 10 μM, mean cell growth of 60 tumor cell lines; for activity at 10 µM: Homo sapiens
Procedure: as §4
as §5, with “nm). Growth inhibition was measured relative to the response generated from proliferating cells cultured under identical conditions for 48 h.” for “nm).”

Row | GI50 (DLD1-TxR) [nM] | GI50 concentration range against MDR DLD1-TxR (DLD1-TxR) | GI50 (DLD1) [nM] | GI50 (NCI-H460) [nM] | Compound | selectivity ratio colorectal cancer (DLD1-TxR) | GI50 (OVCAR-8) [nM] | activity at 10 µM [1] [%] | mean growth (%, 10 μM) [1] [%]
1 | 880 ± 90 | nanomolar range | 2330 ± 380 | 1430 ± 130 | COC(=O)c1c2c(c(C)[n+]([O-])c1C)C(=O)C=C(NCc1ccccc1)C2=O [Compound 2] | 2.7 |  |  | 
2 | 3130 ± 100 |  | 5940 ± 300 | 2700 ± 300 | COC(=O)c1c2c(c(C)[n+]([O-])c1C)C(=O)C(NCc1ccc(F)cc1)=CC2=O [Compound 4] | 1.9 | 1590 | 18 | 
3 | 670 ± 50 | nanomolar range | 1220 ± 140 | 560 ± 200 | COC(=O)c1c2c(c(C)[n+]([O-])c1C)C(=O)C=C(NCc1ccc(F)cc1)C2=O [Compound 5] | 1.8 | 406 | -37 | -37
4 | 5930 ± 550 |  | 9670 ± 1150 | 6020 ± 340 | COC(=O)c1c2c(c(C)[n+]([O-])c1C)C(=O)C(NCc1ccc(O)cc1)=CC2=O [Compound 20] | 1.6 | 1080 | -21 | -21
5 | 14900 ± 680 |  | 30200 ± 4080 | 38000 ± 8320 | COC(=O)c1c2c(c[n+]([O-])c1C)C(=O)C=CC2=O [Compound 23] | 2 | 2930 | 44.5 | 
6 | 720 ± 30 | nanomolar range | 1390 ± 170 | 750 ± 140 | COC(=O)c1c2c(c[n+]([O-])c1C)C(=O)C(NCc1ccccc1)=CC2=O [Compound 24] | 1.9 | 320 | -35.1 | -35.1
7 | 420 ± 30 | nanomolar range | 610 ± 110 | 350 ± 20 | COC(=O)c1c2c(c[n+]([O-])c1C)C(=O)C=C(NCc1ccccc1)C2=O [Compound 25] | 1.5 | 240 |  | 
8 |  |  |  | 30 ± 10 | COc1cccc2c1C(=O)c1c(O)c3c(c(O)c1C2=O)C[C@@](O)(C(=O)CO)C[C@@H]3O[C@H]1C[C@H](N)[C@H](O)[C@H](C)O1 [doxorubicin, reference compound] |  |  |  | 
